From ChEMBL document CHEMBL1201862, “PubChem BioAssay data set” (2004)
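These data come from cells grown in 96-well plates and exposed to compound for 48 hours at five concentrations. GI50 is the concentration that inhibits growth by half.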 The source made the active and inactive calls. Cut-off read from the data, not from the text of the source: active = GI50 up to about 1.1 µM and inactive = higher.

Assays:
Experiment in all cases: DTP human tumour cell line panel, 48 h
KM12 = test system: KM12
SF-268 = test system: SF-268
SN12C = test system: SN12C
SNB-19 = test system: SNB-19
NCI-H23 = test system: NCI-H23
HL-60 = test system: HL-60
UACC-62 = test system: UACC-62
NCI/ADR-RES = test system: NCI/ADR-RES
MCF7 = test system: MCF7
OVCAR-4 = test system: OVCAR-4
SR = test system: SR
Malme-3M = test system: Malme-3M
A498 = test system: A498
HCT-116 = test system: HCT-116
A549 = test system: A549
CAKI-1 = test system: CAKI-1
LOX IMVI = test system: LOX IMVI
SK-MEL-28 = test system: SK-MEL-28
HOP-92 = test system: HOP-92
NCI-H226 = test system: NCI-H226

Measured: GI50

OCCCCCNc1c2ccccc2nc2ccccc12
inactive: KM12 3.13 µM | SF-268 2.75 µM | SN12C 2.54 µM | SNB-19 3.03 µM | NCI-H23 2.02 µM | HL-60 3.44 µM | UACC-62 1.8 µM | NCI/ADR-RES 7.46 µM | MCF7 2.33 µM | OVCAR-4 2.31 µM | SR 1.37 µM | Malme-3M 1.9 µM | A498 3.73 µM | HCT-116 1.45 µM | A549 2.65 µM | CAKI-1 2.91 µM | LOX IMVI 1.89 µM | SK-MEL-28 3.85 µM

Cc1cc(NC(=O)C(=O)Cc2nc3ccccc3s2)ccc1Cl
inactive: KM12 > 100 µM | SF-268 > 100 µM | SN12C > 100 µM | HOP-92 > 100 µM | NCI-H226 > 100 µM | SNB-19 > 100 µM | NCI-H23 > 100 µM | UACC-62 > 100 µM | NCI/ADR-RES > 100 µM | MCF7 > 100 µM | OVCAR-4 > 100 µM | SR > 100 µM | Malme-3M > 100 µM | A498 > 100 µM | HCT-116 > 100 µM | A549 > 100 µM | CAKI-1 > 100 µM | LOX IMVI > 100 µM | SK-MEL-28 > 100 µM

COc1ccc(C2=CC(c3ccccc3)n3nnnc3N2)cc1 (stereo not given)
inactive: KM12 > 100 µM | SF-268 74 µM | SN12C > 100 µM | NCI-H226 > 100 µM | SNB-19 > 100 µM | NCI-H23 > 100 µM | HL-60 > 100 µM | UACC-62 > 100 µM | NCI/ADR-RES > 100 µM | MCF7 > 100 µM | SR > 100 µM | HCT-116 > 100 µM | A549 > 100 µM | CAKI-1 > 100 µM | LOX IMVI > 100 µM

COC(=O)C1=C(C)N2[C@H](C(=O)O)CO[C@@]2(C)[C@H](C(=O)OC)[C@H]1c1cccc([N+](=O)[O-])c1
inactive: KM12 > 100 µM | SF-268 > 100 µM | SN12C > 100 µM | HOP-92 > 100 µM | NCI-H226 > 100 µM | SNB-19 > 100 µM | NCI-H23 > 100 µM | UACC-62 > 100 µM | NCI/ADR-RES > 100 µM | MCF7 > 100 µM | OVCAR-4 > 100 µM | SR > 100 µM | Malme-3M > 100 µM | A498 > 100 µM | HCT-116 > 100 µM | A549 > 100 µM | CAKI-1 > 100 µM | SK-MEL-28 > 100 µM

Cc1c(C(=O)NNc2ccccc2)n2c(S)nnc2c2ccccc12
inactive: KM12 > 100 µM | SF-268 > 100 µM | SN12C > 100 µM | HOP-92 > 100 µM | NCI-H226 > 100 µM | SNB-19 > 100 µM | NCI-H23 > 100 µM | HL-60 > 100 µM | UACC-62 > 100 µM | NCI/ADR-RES > 100 µM | MCF7 > 100 µM | OVCAR-4 > 100 µM | SR 74.3 µM | A498 > 100 µM | HCT-116 > 100 µM | A549 > 100 µM | CAKI-1 > 100 µM | LOX IMVI > 100 µM | SK-MEL-28 86.7 µM

COC(=O)CN(CC(=O)NCCCBr)C1CCCCC1N(CC(=O)OC)CC(=O)OC (stereo not given)
inactive: KM12 > 100 µM | SF-268 > 100 µM | SN12C > 100 µM | HOP-92 77.3 µM | NCI-H226 > 100 µM | SNB-19 > 100 µM | NCI-H23 > 100 µM | HL-60 > 100 µM | UACC-62 > 100 µM | NCI/ADR-RES > 100 µM | MCF7 > 100 µM | OVCAR-4 > 100 µM | SR > 100 µM | A498 > 100 µM | HCT-116 > 100 µM | A549 > 100 µM | CAKI-1 > 100 µM | LOX IMVI > 100 µM | SK-MEL-28 > 100 µM

C/C=C(/C)C(=O)O[C@@H]1c2c(C)coc2C[C@H]2CC[C@H](O)[C@H](C)[C@]21C
inactive: KM12 46.2 µM | SF-268 70.8 µM | SN12C 31.3 µM | HOP-92 74.8 µM | NCI-H226 52.1 µM | SNB-19 > 100 µM | NCI-H23 34.2 µM | HL-60 34.5 µM | UACC-62 43.8 µM | NCI/ADR-RES 23.1 µM | MCF7 26.3 µM | OVCAR-4 39.4 µM | SR 49.9 µM | Malme-3M 26.9 µM | HCT-116 31.6 µM | CAKI-1 > 100 µM | LOX IMVI 49.4 µM | SK-MEL-28 44.8 µM

CC12CCC(Br)C(C)(C)C1CC=C1C(=O)OCC1O2 (stereo not given)
inactive: KM12 14.2 µM | SF-268 14.1 µM | SN12C 18.5 µM | HOP-92 11.9 µM | NCI-H226 10.1 µM | SNB-19 18.2 µM | NCI-H23 11.8 µM | HL-60 1.84 µM | UACC-62 8.59 µM | NCI/ADR-RES 20.4 µM | MCF7 6.07 µM | OVCAR-4 16 µM | SR 5.15 µM | A498 12 µM | HCT-116 12.9 µM | A549 23.6 µM | CAKI-1 11.6 µM | LOX IMVI 9.57 µM | SK-MEL-28 14.8 µM
